Tests used:
[1] = target: T1, 5-HT2C edited (accession number AAF35842.1) (Homo sapiens, UniProt P28335, I156V/I160V/N158S); experiment: biochemical; type: binding
Target sequence in this assay (P28335 33-458 I156V/N158S/I160V limits assumed): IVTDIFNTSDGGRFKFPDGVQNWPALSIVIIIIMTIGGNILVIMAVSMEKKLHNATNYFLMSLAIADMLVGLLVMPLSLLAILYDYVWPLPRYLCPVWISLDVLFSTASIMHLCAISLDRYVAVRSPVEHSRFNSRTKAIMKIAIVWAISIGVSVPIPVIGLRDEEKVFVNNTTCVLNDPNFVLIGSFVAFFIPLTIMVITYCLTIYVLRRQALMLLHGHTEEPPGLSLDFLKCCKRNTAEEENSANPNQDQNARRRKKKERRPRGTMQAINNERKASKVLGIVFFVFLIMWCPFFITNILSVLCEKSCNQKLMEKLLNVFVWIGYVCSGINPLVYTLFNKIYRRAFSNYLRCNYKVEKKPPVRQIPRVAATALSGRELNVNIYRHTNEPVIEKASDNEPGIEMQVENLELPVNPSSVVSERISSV

[2] = target: T1, 5-HT2C edited (accession number AAF35842.1); experiment: cell-based
Target sequence in this assay (P28335 whole entry I156V/N158S/I160V, looked up): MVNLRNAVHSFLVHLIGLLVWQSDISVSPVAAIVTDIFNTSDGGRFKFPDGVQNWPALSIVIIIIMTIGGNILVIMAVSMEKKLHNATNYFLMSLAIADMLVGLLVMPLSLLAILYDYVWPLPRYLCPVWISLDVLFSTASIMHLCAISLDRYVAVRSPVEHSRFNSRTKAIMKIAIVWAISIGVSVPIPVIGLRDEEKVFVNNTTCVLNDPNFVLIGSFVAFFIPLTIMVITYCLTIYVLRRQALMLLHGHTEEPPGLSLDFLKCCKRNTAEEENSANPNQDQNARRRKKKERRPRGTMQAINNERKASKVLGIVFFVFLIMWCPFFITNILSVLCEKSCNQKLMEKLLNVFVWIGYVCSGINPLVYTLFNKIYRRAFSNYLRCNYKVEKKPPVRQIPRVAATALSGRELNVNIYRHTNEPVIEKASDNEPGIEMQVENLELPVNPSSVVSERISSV

5-HT2C = 5-HT2C (Homo sapiens, UniProt P28335, I156V/I160V/N158S); experiment: cell-based
Chain of 5-HT2C (P28335 33-458 I156V/N158S/I160V limits assumed): as the sequence (P28335 33-458 I156V/N158S/I160V limits assumed) above

Structure (SMILES)	IC50 [1]	EC50 [2]	IC50 (5-HT2C)
CN1CCc2[nH]c3cc(OCc4ccccc4)ccc3c2CC1 [Compound 1, 8-(benzyloxy)-3-methyl-1,2,3,4,5,6-hexahydroazepino[4,5-b]indole]	0.101 to 1 µM	1 to 10 µM	
CN1CCc2[nH]c3cccc(OCc4ccccc4)c3c2CC1 [Compound 2, 10-(benzyloxy)-3-methyl-1,2,3,4,5,6-hexahydroazepino[4,5-b]indole]	< 0.01 µM	0.01 to 0.1 µM	0.01 to 0.1 µM
c1ccc(COc2ccc3c4c([nH]c3c2)CCNCC4)cc1 [Compound 3, 8-(benzyloxy)-1,2,3,4,5,6-hexahydroazepino[4,5-b]indole]	0.101 to 1 µM	0.101 to 1 µM	
c1ccc(COc2cccc3[nH]c4c(c23)CCNCC4)cc1 [Compound 4, 10-(benzyloxy)-1,2,3,4,5,6-hexahydroazepino[4,5-b]indole]	< 0.01 µM	< 0.01 µM	
Cn1c2c(c3ccc(OCc4ccccc4)cc31)CCNCC2 [Compound 5, 8-(benzyloxy)-6-methyl-1,2,3,4,5,6-hexahydroazepino[4,5-b]indole]	0.101 to 1 µM	1 to 10 µM	> 10 µM
CN1CCc2c(n(C)c3cc(OCc4ccccc4)ccc23)CC1 [Compound 6, 8-(benzyloxy)-3,6-dimethyl-1,2,3,4,5,6-hexahydroazepino[4,5-b]indole]	0.101 to 1 µM	1 to 10 µM	
Fc1ccc(COc2ccc3c4c([nH]c3c2)CCNCC4)cc1 [Compound 7, 8-((4-fluorobenzyl)oxy)~1,2,3,4,5,6-hexahydroazepino[4,5-b]indole]	0.101 to 1 µM	0.101 to 1 µM	> 10 µM
CN1CCc2[nH]c3cc(OCc4ccc(F)cc4)ccc3c2CC1 [Compound 8, 8-((4-fluorobenzyl)oxy)-3-methyl-1,2,3,4,5,6-hexahydroazepino[4,5-b]indole]	0.101 to 1 µM	1 to 10 µM	1 to 10 µM
Cn1c2c(c3ccc(OCc4ccc(F)cc4)cc31)CCNCC2 [Compound 9, 8-((4-fluorobenzyl)oxy)-6-methyl-1,2,3,4,5,6-hexahydroazepino[4,5-b]indole]	0.101 to 1 µM	1 to 10 µM	
CN1CCc2c(n(C)c3cc(OCc4ccc(F)cc4)ccc23)CC1 [Compound 10, 8-((4-fluorobenzyl)oxy)-3,6-dimethyl-1,2,3,4,5,6-hexahydroazepino[4,5-b]indole]	0.101 to 1 µM	1 to 10 µM	1 to 10 µM
c1ccc(Oc2ccc3c4c([nH]c3c2)CCNCC4)cc1 [Compound 11, 8-phenoxy-1,2,3,4,5,6-hexahydroazepino[4,5-b]indole]	0.101 to 1 µM	0.101 to 1 µM	> 10 µM
CN1CCc2[nH]c3cc(Oc4ccccc4)ccc3c2CC1 [Compound 12, 3-methyl-8-phenoxy-1,2,3,4,5,6-hexahydroazepino[4,5-b]indole]	0.101 to 1 µM	1 to 10 µM	> 10 µM
Cn1c2c(c3ccc(Oc4ccccc4)cc31)CCNCC2 [Compound 13, 6-methyl-8-phenoxy-1,2,3,4,5,6-hexahydroazepino[4,5-b]indole]	0.101 to 1 µM	1 to 10 µM	
CN1CCc2c(n(C)c3cc(Oc4ccccc4)ccc23)CC1 [Compound 14, 3,6-dimethyl-8-phenoxy-1,2,3,4,5,6-hexahydroazepino[4,5-b]indole]	0.101 to 1 µM	0.101 to 1 µM	> 10 µM
Fc1ccc(Oc2ccc3c4c([nH]c3c2)CCNCC4)cc1 [Compound 15, 8-(4-fluorophenoxy)-1,2,3,4,5,6-hexahydroazepino[4,5-b]indole]	0.101 to 1 µM	0.101 to 1 µM	
CN1CCc2[nH]c3cc(Oc4ccc(F)cc4)ccc3c2CC1 [Compound 16, 8-(4-fluorophenoxy)-3-methyl-1,2,3,4,5,6-hexahydroazepino[4,5-b]indole]	0.101 to 1 µM	1 to 10 µM	> 10 µM
Cn1c2c(c3ccc(Oc4ccc(F)cc4)cc31)CCNCC2 [Compound 17, 8-(4-fluorophenoxy)-6-methyl-1,2,3,4,5,6-hexahydroazepino[4,5-b]indole]	0.01 to 0.1 µM	1 to 10 µM	
CN1CCc2c(n(C)c3cc(Oc4ccc(F)cc4)ccc23)CC1 [Compound 18, 8-(4-fluorophenoxy)-3,6-dimethyl-1,2,3,4,5,6-hexahydroazepino[4,5-b]indole]	0.101 to 1 µM	0.101 to 1 µM	1 to 10 µM
Cn1c2c(c3c(OCc4ccccc4)cccc31)CCNCC2 [Compound 19, 10-(benzyloxy)-6-methyl-1,2,3,4,5,6-hexahydroazepino[4,5-b]indole]	0.01 to 0.1 µM	0.01 to 0.1 µM	
c1ccc(Oc2cccc3[nH]c4c(c23)CCNCC4)cc1 [Compound 20, 10-phenoxy-1,2,3,4,5,6-hexahydroazepino[4,5-b]indole]	< 0.01 µM	< 0.01 µM	
Fc1ccc(Oc2cccc3[nH]c4c(c23)CCNCC4)cc1 [Compound 21, 10-(4-fluorophenoxy)-1,2,3,4,5,6-hexahydroazepino[4,5-b]indole]	< 0.01 µM	< 0.01 µM	
CN1CCc2[nH]c3cccc(Oc4ccc(F)cc4)c3c2CC1 [Compound 22, 10-(4-fluorophenoxy)-3-methyl-1,2,3,4,5,6-hexahydroazepino[4,5-b]indole]	0.01 to 0.1 µM	< 0.01 µM	> 10 µM
Cn1c2c(c3c(Oc4ccc(F)cc4)cccc31)CCNCC2 [Compound 23, 10-(4-fluorophenoxy)-6-methyl-1,2,3,4,5,6-hexahydroazepino[4,5-b]indole]	0.01 to 0.1 µM	0.101 to 1 µM	
CN1CCc2c(n(C)c3cccc(Oc4ccc(F)cc4)c23)CC1 [Compound 24, 10-(4-fluorophenoxy)-3,6-dimethyl-1,2,3,4,5,6-hexahydroazepino[4,5-b]indole]	0.01 to 0.1 µM	0.101 to 1 µM	0.01 to 0.1 µM
c1ccc(COc2ccc3[nH]c4c(c3c2)CCNCC4)cc1 [Compound 25, 9-(benzyloxy)-1,2,3,4,5,6-hexahydroazepino[4,5-b]indole]	0.01 to 0.1 µM	0.01 to 0.1 µM	> 10 µM
CN1CCc2[nH]c3ccc(OCc4ccccc4)cc3c2CC1 [Compound 26, 9-(benzyloxy)-3-methyl-1,2,3,4,5,6-hexahydroazepino[4,5-b]indole]	0.101 to 1 µM	0.101 to 1 µM	0.101 to 1 µM
c1ccc(COc2cccc3c4c([nH]c23)CCNCC4)cc1 [Compound 27, 7-(benzyloxy)-1,2,3,4,5,6-hexahydroazepino[4,5-b]indole]	0.101 to 1 µM	0.101 to 1 µM	
CN1CCc2[nH]c3c(OCc4ccccc4)cccc3c2CC1 [Compound 28, 7-(benzyloxy)-3-methyl-1,2,3,4,5,6-hexahydroazepino[4,5-b]indole]	0.101 to 1 µM	0.101 to 1 µM	0.101 to 1 µM
CN1CCc2[nH]c3c(Br)ccc(OCc4ccccc4)c3c2CC1 [Compound 29, 10-(benzyloxy)-7-bromo-3-methyl-1,2,3,4,5,6-hexahydroazepino[4,5-b]indole]	< 0.01 µM	> 10 µM	0.01 to 0.1 µM

Reference: patent publication US12295959B2 (priority 2021, dated 2025)
